One experiment addresses T1, αA-crystallin (αAC) (Homo sapiens, UniProt P02489).
T1 sequence (P02489 1-173): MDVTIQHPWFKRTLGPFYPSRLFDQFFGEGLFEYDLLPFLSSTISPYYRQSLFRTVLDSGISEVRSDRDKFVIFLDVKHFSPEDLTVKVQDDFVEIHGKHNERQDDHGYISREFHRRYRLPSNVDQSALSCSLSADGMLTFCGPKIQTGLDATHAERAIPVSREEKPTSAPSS
Briefly: Relative protein acetylation capability on recombinant αAC. In kind it is biochemical. Particulars: 500 μM acetylating agent, αAC 3 mg/mL, 24 hours, 37° C. As to the method:
The relative ability of Aggrelyte-2 to acetylate lysine residues in proteins was investigated using αA-crystallin (αAC). Human recombinant αAC (3 mg/mL PBS) was incubated in 50 mM sodium phosphate buffer, pH 7.4, for 24 hours at 37° C. while shaking without or with 500 μM acetylating agent (Aggrelyte-2, acetyl-CoA, acetic anhydride, or aspirin), dialyzed against PBS for 24 hours at 4° C.

For the next experiment, the system named is WI proteins (human lens). Nature of the experiment: Relationship between protein acetylation and solubility: WI proteins treated with acetic anhydride or Aggrelyte-2. In kind it is biochemical. An excerpt: To determine whether protein acetylation alone contributed to lens protein solubility, the soluble protein levels in WI proteins treated with acetic anhydride and Aggrelyte-2 were compared.

In experiment [1] the test system is human lenses. Briefly: Acetylated proteins in ex vivo treated human lenses (Example 23). Particulars: 250 μM, 48 hours. The procedure:
Each lens from Example 21 was decapsulated and homogenized in N2-bubbled 50 mM phosphate buffer, pH 7.4 (1.5 mL per lens), in a hand-held glass homogenizer. The sample was processed and evaluated for protein content as described in Example 19.

Experiment [2] has as its system mouse lenses. Conditions: 40 mM topical twice daily for four weeks, mice.
Description: A 40 mM solution of Aggrelyte-2A was prepared in a liquid formulation that consisted of benzalkonium chloride (0.001%), NaH2PO4·H2O (0.269%), Na2HPO4 (0.433%), hypromellose (0.2%), and NaCl (0.5%). Aggrelyte-2A in the formulation (5 μl) was applied to the right eye twice daily (8 AM and 4 PM) to unanesthetized animals for four weeks. The left eye received only the formulation (5 μl) (“Vehicle” or “Control”). After treatment, the animals were euthanized by CO2 asphyxiation. The eyes were enucleated, and the lenses were removed immediately by a posterior approach and placed in fresh PBS. The stiffness of the lenses was measured using a computer-controlled lens squeezer. The AcK-bearing protein levels of the lenses were measured by Western blotting. The protein-thiol content of the lenses was measured using a Thiol Quantification Assay Kit from Abcam, using reduced GSH as the standard.
Experiment [3] relates to mouse lenses. Briefly: Stiffness of ex vivo mouse lenses (Example 18). Conditions: 1 mM, 24 hours, ex vivo mouse lenses (3-6 months old); not significant. Also noted: species or system mouse (C57BL/6J). As to the method: In this example, the lenses were dissected from the eyes of mice (C57BL/6J, 3-6 months old, Jackson Laboratories, Stock No. 000664) by a posterior approach and incubated without (“Control”) or with Aggrelyte-2 or Aggrelyte-2A (1 mM) for 24 hours in serum-free and phenol-red-free MEM (297 mOsm) at 37° C. Lens stiffness was measured as in Example 10, except that the load was applied at 50 mg increments.

The subject of experiment [4] is mouse lenses. Nature of the experiment: Acetylated proteins in ex vivo treated mouse lenses (Western blot, Example 19). Conditions: 1 mM, 24 hours. The procedure: The lenses from Example 18 were homogenized using N2-bubbled 50 mM phosphate buffer, pH 7.4 (0.4 mL per lens), in a hand-held motorized homogenizer. The homogenate was centrifuged at 20,000×g for 20 minutes at 4° C. The resulting supernatant was collected, and its protein content was measured using BCA Protein Assay Kit using BSA as the standard. The soluble protein was subjected to 12% SDS-PAGE under denaturing conditions and the proteins were electrophoretically transferred to a nitrocellulose membrane and blocked with 5% nonfat dry milk. The membrane was then incubated with a monoclonal antibody against N-acetyllysine (AcK antibody @ 1:5,000 dilution; Cell Signaling Technology Catalog #9681S) for 16 hours, followed by horseradish peroxidase (HRP)-conjugated goat anti-mouse IgG (1:5,000 dilution; Cell Signaling Technology Catalog #7076S) for 1 hour. Chemiluminescence was detected using the Enhanced Chemiluminescence Detection Kit. The membrane was stained with Ponceau-S to visualize the proteins and normalize acetyllysine (AcK)-bearing protein to total protein load.
In general terms: Immunoblotting shows a protein as a band on a membrane.

Experiment [5] has as its system human lenses. Nature of the experiment: Stiffness of ex vivo human lenses (Example 22). Conditions: 250 μM, 48 hours. As to the method: To test the effects of Aggrelyte-2 and Aggrelyte-2A on human lenses (age: 47-67 years), lenses were incubated in media containing freshly dissolved aggrelyte (250 μM) for 48 hours, with aggrelyte replacement after 24 hours. One lens from each donor pair was treated with aggrelyte, while the other was used as the control. After incubation, lens stiffness was measured, as described above in Example 20.

From US12350250B2, “Aggrelytes for treating ocular conditions” (The Regents of the University of Colorado, a Body Corporate, priority 2022, dated 2025) come the findings set out here.

Regarding `CC(=O)SCCNC(=O)CCNC(=O)[C@H](O)C(C)(C)COP(=O)(O)OP(=O)(O)OC[C@H]1O[C@@H](n2cnc3c(N)ncnc32)[C@H](O)[C@@H]1OP(=O)(O)O` [acetyl-CoA], the “rank order of acetylating agents” value on αA-crystallin (αAC) is “followed by Aggrelyte-2, aspirin, and acetyl-CoA”.

Consider `CC(=O)Oc1ccccc1C(=O)O` [aspirin], for which the “rank order of acetylating agents” value on αA-crystallin (αAC) was “followed by Aggrelyte-2, aspirin, and acetyl-CoA”.

Take `CC(=O)OC(C)=O` [acetic anhydride]: the “acetylation of WI proteins, comparison” value in the experiment on WI proteins (human lens) is “better acetylating agent than Aggrelyte-2”. Moreover, at αA-crystallin (αAC), the “acetylating potency, fold higher than Aggrelyte-2” value is reported as around 21 fold and the “rank order of acetylating agents” value is given as “most potent acetylating agent”.

For `COC(=O)[C@H](CSC(C)=O)NC(=O)CC(C)(C)C` [Aggrelyte-2A, methyl S-acetyl-N-(3,3,-dimethylbutanoyl)-L-cysteinate], the “increase in density of acetyl-bearing proteins compared to control lenses” value in the experiment on human lenses [1] is on record as “approximately 5%”. Besides, the “increase in protein thiol content compared to vehicle-treated lenses” value with mouse lenses [2] is “approximately 8%”. The “reduction of lens stiffness compared to vehicle-treated lenses” value with mouse lenses [2] (200-mg load) is listed as “approximately 12%”. The “increase in density of AcK-bearing proteins compared to vehicle-treated lenses” value with mouse lenses [2] (Western blot) is on record as “approximately 10%”. Besides, the “reduction in stiffness at 400- and 500-mg loads” value in the experiment on mouse lenses [2] (relative to 200-mg load result) was “similar”. Besides, the “reduction of lens stiffness” value in the experiment on mouse lenses [3] is given as “approximately 20%”. For the same compound, in the experiment on mouse lenses [4], the “density of acetyl-bearing proteins, % increase compared to Aggrelyte-2” value is reported as “at least 50%” and the “density of acetyl-bearing proteins, fold increase compared to untreated control lenses” value was 5 fold. In the experiment with human lenses [5] (ex vivo human lenses (47-67 years)), the “reduction of lens stiffness compared to vehicle-treated lenses” value is “approximately 15%”. Moreover, the “significance of stiffness reduction at 2000-mg load” value in the experiment on human lenses [5] (ex vivo human lenses, 2000-mg load (p<0.05)) was “significant”.
